# Data taken from PMC9415608, “Design, Synthesis and Biological Investigation of 2-Anilino Triazolopyrimidines as Tubulin Polymerization Inhibitors with Anticancer Activities” (Pharmaceuticals, 2022).
# Columns and labels:
# Bovine brain tubulin = assay: Inhibition of [3H]colchicine binding to tubulin; conditions: tubulin 0.5 µM, [3H]colchicine 5 µM, tested compound 5 µM
# Experimental: Bovine brain tubulin was purified as described previously. To evaluate the effects of the compounds on tubulin assembly in vitro [80], varying concentrations were preincubated with 10 μM tubulin in 0.8 M monosodium glutamate (pH 6.6) at 30 °C and the reaction mixtures then cooled to 0 °C. After addition of GTP, the mixtures were transferred to 0 °C cuvettes in Beckman Coulter (Brea, CA, USA) DU-7400/DU-7500 recording spectrophotometers equipped with electronic temperature controllers and warmed to 30 °C, and the assembly of tubulin was observed turbidimetrically. […] Inhibition of colchicine binding to tubulin was measured as described before, except that the reaction mixtures contained 0.5 μM tubulin and 5 μM each of [^3H]colchicine and test compound. Only one DEAE-cellulose filter was used per sample, and filtration was by gravity.
# Bovine brain tubulin (see ref. [79] for details of purification) was used to examine effects on tubulin polymerization and colchicine binding. Briefly, in the polymerization experiments, different compound concentrations were preincubated with 10 µM tubulin for 15 min at 30 °C and cooled on ice. After GTP was added to each reaction mixture, the samples were transferred to 0 °C cuvettes in recording spectrophotometers with electronic temperature controllers. The temperature was raised to 30 °C over about 30 s, and turbidity development was followed for 20 min at 350 nm. […] In the current studies, [^3H]colchicine (from American Radiolabeled Corp., St. Louis, MO) binding was measured after 10 min at 37 °C. Reaction mixtures contained 0.5 µM tubulin and 5.0 µM each of the [^3H]colchicine and the potential inhibitor, and a single DEAE-cellulose filter was used for each sample, with gravity filtration.
# HeLa cells [1] = assay: Apoptosis assay, annexin-V-FITC/PI flow cytometry; type: cell-based, human
# Experimental: The quantification of the apoptosis induced by the test compounds was carried out by flow cytometric analysis using the Annexin-V Fluos kit (Roche Diagnostics, Rotkreuz, Switzerland) following the manufacturer’s instructions. The HeLa cells treated with the test compounds for different incubation times and at the indicated concentrations were then labeled with annexin V/FITC and PI and analyzed with Coulter Cytomics FC500 (Beckman Coulter) in the FL1 and FL3 channel, respectively.
# HeLa = assay: In vitro cell growth inhibition, resazurin viability assay; type: cell-based, human
# Experimental: (§1) All the cell lines used in this paper were of human origin and purchased from the American Type Culture Collection (ATCC, Manassas, VA, USA). Colon adenocarcinoma (HT-29), non-small cell lung carcinoma (A549), cervix carcinoma (HeLa) and breast adenocarcinoma (MDA-MB-231) cells were grown in RPMI (HT29) or DMEM (A549, HeLa, MDA-MB-231) medium (Gibco, Milano, Italy). Both media were supplemented with 115 units/mL of penicillin G (Gibco, Milano, Italy), 115 μg/mL of streptomycin (Invitrogen, Milano, Italy) and 10% fetal bovine serum (Invitrogen, Milano, Italy). All cell lines were grown at 37 °C in a humidified 5% CO2 atmosphere. The cells were grown in 2 mL of complete medium.
# (§2) Stock solutions were prepared for each compound by dissolving in DMSO at the final concentration of 10 mM.
# (§3) The cells were seeded in 96-well plates at the appropriate density for each cell line. The respective cell line densities used for the antiproliferative assay were HeLa and HT29 5000 cells/well, A549 4000 cells/well and MDA-MB-231 7000 cells/well. The total volume of medium was 100 µL. After 24 h, the cells were treated by performing serial 5-fold dilutions of the tested compounds starting from a concentration of 10 μM. All experimental conditions were tested in triplicate for statistical analysis. After 72 h of incubation, 10 μL of 100 μg/mL resazurin solution was added to each well and the plate was re-incubated for 3–4 h. The fluorescence of the wells in each plate was monitored using a Spark 10M spectrophotometer (Tecan Group Ltd., Mannedorf, Switzerland) with a 535 nm excitation wavelength and a 600 nm emission wavelength.
# MDA-MB-231 = assay: as above; type: cell-based, human
# Experimental: as §1, §2, §3
# HT29 = assay: as above; type: cell-based, human
# Experimental: as §1, §2, §3
# A549 = assay: as above; type: cell-based, human
# Experimental: as §1, §2, §3
# HeLa cells [2] = assay: Cell cycle analysis by flow cytometry (PI); type: cell-based, human
# Experimental: For these experiments, HeLa cells were used, which were seeded in 6-well plates at a concentration of 5 × 10^5/well in a final volume of 2 mL culture medium. The cells were then treated with the test compounds for 24 h at the indicated concentrations. After this incubation period, the cells were detached with trypsin-EDTA and harvested by centrifugation. The pellet thus obtained was fixed in 70% ice-cold ethanol.
# After this incubation period, the cells were detached with trypsin-EDTA and harvested by centrifugation. The pellet thus obtained was fixed in 70% ice-cold ethanol for at least 1 h. The cells thus fixed were treated with a 0.1% v/v solution of Triton_X-100 in phosphate buffered saline (PBS) containing RNAseA and propidium iodide (PI) at the final concentration of 0.02 mg/mL. The cells were incubated at room temperature for 30 min and then analyzed on a Cytomic FC500 flow cytometer (Beckman Coulter) in the FL3 channel. DNA histograms were analyzed using MultiCycle for Windows (Phoenix Flow Systems, San Diego, CA, USA).
# HeLa cells [3] = assay: Mitochondrial potential, JC-1 flow cytometry; type: cell-based, human; conditions: 24 h treatment, increased further at 48 h
# Experimental: The analysis of the mitochondrial potential was carried out by flow cytometric analysis. Briefly, the cells treated with the test compound were labeled with the JC-1 dye as previously described. The labeled cells were analyzed using the Coulter Cytomics FC500 (Beckman Coulter) in the FL1 and FL2 channel, respectively.
structure (smiles),measurement,setting,value
"COc1cc(-c2ccnc3nc(Nc4ccc(C)cc4)nn23)cc(OC)c1OC [Compound 3d, N-(p-Tolyl)-7-(3,4,5-trimethoxyphenyl)-[1,2,4]triazolo[1,5-a]pyrimidin-2-amine]",Colchicine Binding % Inhibition ± SD,Bovine brain tubulin,72 ± 5%
same,necrotic cells (A−/PI+),"HeLa cells [1]; 50 nM, long incubation times",about 25%
same,induction of apoptosis,"HeLa cells [1]; HeLa, 24 or 48 h","induced, in a concentration- and time-dependent manner, apoptosis"
same,fold less potent than CA-4,HeLa; HeLa cells,10 fold
same,IC50,"HeLa; Homo sapiens, 72 h, resazurin, mean ± SE",0.038 ± 0.009 µM
same,IC50,"MDA-MB-231; Homo sapiens, MDA-MB-231, 72 h, resazurin, mean ± SE",0.43 ± 0.11 µM
same,fold less potent than CA-4,MDA-MB-231; MDA-MB-231 cells,100 fold
same,fold greater activity than CA-4,HT29; HT-29 cells,100 fold
same,IC50,"HT29; Homo sapiens, HT-29, 72 h, resazurin, mean ± SE",0.03 ± 0.003 µM
same,fold more potent than CA-4,A549; A549 cells,4 fold
same,IC50,"A549; Homo sapiens, A549, 72 h, resazurin, mean ± SE",0.043 ± 0.024 µM
same,concentration at which increase in G2/M cells was evident,HeLa cells [2]; 24 h,25 nM
same,effect on cell cycle (G2/M),"HeLa cells [2]; 24 h, 10, 25 or 50 nM",significant G2/M arrest in a concentration-dependent manner
same,mitochondrial depolarization (JC-1 monomers),HeLa cells [3],significant increase in the percentage of monomers
